Consider 24 compounds from patent publication US11814367B2, “Inhibitors of glycogen synthase 1 (GYS1) and methods of use thereof” (Maze Therapeutics, Inc., priority 2021, dated 2023).

Experiment [1] addresses hGYS1 enzyme (recombinant hGYS1/GN1 protein) (Homo sapiens (Human), UniProt P13807). The experiment can be described thus: GYS1 coupled enzyme assay (PK/LDH). The conditions noted are these: hGYS1/GN1 50 nM, UDP-Glucose 0.8 mM, G6P 1 mM; geometric mean of at least 2 runs. It is filed as biochemical.
In experiment [2] the target is hGYS2 enzyme (recombinant hGYS2/GN1 protein) (Homo sapiens (Human), UniProt P54840). The experiment can be described thus: GYS2 coupled enzyme assay (PK/LDH). Format: biochemical. The conditions noted are these: geometric mean of at least 2 assay runs on separate days, read-out: Avg_IC50. An outline of the steps:
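IC50 came from Hill fits of duplicate percent inhibition, based on control-normalized slopes of 340 nm NADH decline read each minute for 10 min. The reaction held recombinant hGYS2/GN1 (200 nM) with glycogen, UDP-glucose, G6P and PEP, plus PK/LDH coupling at pH 7.5 and 2.5% DMSO.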

hGYS2 enzyme (recombinant hGYS2/GN1 protein), sequence (P54840 whole entry): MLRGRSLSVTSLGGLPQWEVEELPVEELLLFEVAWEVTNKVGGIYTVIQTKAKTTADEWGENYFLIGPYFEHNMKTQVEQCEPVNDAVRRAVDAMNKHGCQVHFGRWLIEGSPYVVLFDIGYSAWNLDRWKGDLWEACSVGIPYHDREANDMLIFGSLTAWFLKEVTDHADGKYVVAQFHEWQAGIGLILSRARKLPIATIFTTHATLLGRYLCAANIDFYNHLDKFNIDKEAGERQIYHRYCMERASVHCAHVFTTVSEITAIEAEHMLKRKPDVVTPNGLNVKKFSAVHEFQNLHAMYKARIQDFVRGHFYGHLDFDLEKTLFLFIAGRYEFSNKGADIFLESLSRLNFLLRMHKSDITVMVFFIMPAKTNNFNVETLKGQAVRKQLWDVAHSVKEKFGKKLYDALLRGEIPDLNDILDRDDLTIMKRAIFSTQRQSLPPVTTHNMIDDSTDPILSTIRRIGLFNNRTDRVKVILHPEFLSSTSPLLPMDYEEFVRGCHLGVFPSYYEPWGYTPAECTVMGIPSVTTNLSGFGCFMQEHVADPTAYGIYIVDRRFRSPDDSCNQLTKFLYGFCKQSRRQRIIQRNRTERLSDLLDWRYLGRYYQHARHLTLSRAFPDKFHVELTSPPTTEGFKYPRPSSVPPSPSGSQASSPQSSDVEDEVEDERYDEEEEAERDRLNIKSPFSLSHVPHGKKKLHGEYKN
hGYS2 enzyme (recombinant hGYS2/GN1 protein), sequence (P46976 whole entry partner): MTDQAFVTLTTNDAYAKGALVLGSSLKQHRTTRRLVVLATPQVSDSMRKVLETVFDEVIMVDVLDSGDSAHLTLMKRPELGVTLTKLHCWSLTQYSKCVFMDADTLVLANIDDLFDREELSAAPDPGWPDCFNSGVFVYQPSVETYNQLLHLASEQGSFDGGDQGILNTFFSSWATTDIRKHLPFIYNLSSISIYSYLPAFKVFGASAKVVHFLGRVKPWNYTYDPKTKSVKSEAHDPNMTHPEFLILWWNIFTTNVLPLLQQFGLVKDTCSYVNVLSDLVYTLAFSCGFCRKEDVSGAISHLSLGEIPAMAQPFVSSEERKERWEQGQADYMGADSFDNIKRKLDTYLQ
hGYS1 enzyme (recombinant hGYS1/GN1 protein), sequence (P13807 whole entry): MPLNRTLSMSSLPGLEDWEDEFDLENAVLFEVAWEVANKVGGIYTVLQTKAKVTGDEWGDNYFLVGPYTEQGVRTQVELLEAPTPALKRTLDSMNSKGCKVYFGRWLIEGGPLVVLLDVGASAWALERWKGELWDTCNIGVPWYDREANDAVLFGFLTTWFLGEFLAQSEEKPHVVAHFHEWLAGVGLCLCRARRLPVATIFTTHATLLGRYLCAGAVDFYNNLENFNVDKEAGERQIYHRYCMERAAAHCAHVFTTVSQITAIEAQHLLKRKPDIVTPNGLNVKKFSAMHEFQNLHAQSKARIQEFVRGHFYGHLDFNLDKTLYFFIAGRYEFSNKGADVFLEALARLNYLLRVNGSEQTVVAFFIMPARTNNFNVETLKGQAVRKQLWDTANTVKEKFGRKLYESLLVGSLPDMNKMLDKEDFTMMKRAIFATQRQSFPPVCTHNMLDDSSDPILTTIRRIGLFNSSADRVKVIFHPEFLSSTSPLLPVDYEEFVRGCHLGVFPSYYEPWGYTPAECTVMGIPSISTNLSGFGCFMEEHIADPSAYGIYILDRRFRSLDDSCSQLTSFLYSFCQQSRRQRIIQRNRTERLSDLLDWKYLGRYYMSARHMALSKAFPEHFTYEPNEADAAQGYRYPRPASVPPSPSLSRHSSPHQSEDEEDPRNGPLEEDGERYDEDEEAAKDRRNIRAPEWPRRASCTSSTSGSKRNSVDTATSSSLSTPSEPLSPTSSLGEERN
hGYS1 enzyme (recombinant hGYS1/GN1 protein), sequence (P46976 whole entry partner): as the sequence (P46976 whole entry partner) above

`CC(C)c1ccc([C@@H](NC(=O)[C@@H]2C[C@@H](F)CN2C(=O)C2(c3nnco3)CC2)c2ccccc2)cc1F` [Compound 333, (2S,4R)-4-fluoro-N-[(S)-[3-fluoro-4-(propan-2-yl)phenyl](phenyl)methyl]-1-[1-(1,3,4-oxadiazol-2-yl)cyclopropanecarbonyl] pyrrolidine-2-carboxamide]: the figures for the IC50 in experiment [1] and in experiment [2] were 165 nM and greater than 100000 nM, respectively.

Consider `CC(C)c1ccc([C@@H](NC(=O)[C@@H]2C[C@@H](F)CN2C(=O)C(C)(C)c2nnco2)c2ccccc2)cc1F` [Compound 334], for which the IC50 was 145 nM in experiment [1] and greater than 100000 nM in experiment [2].

Regarding `CC(C)c1ccc([C@@H](NC(=O)[C@@H]2C[C@@H](F)CN2C(=O)Cc2ccnn2C)c2ccccc2)cc1F` [Compound 337, (2S,4R)-4-fluoro-N-[(S)-[3-fluoro-4-(propan-2-yl)phenyl](phenyl)methyl]-1-[2-(1-methyl-1H-pyrazol-5-yl)acetyl]pyrrolidine-2-carboxamide], the IC50 in experiment [1] is 27 nM; in experiment [2], greater than 100000 nM.

As for `CC(C)c1ccc([C@@H](NC(=O)[C@@H]2C[C@@H](F)CN2C(=O)Cc2cnccn2)c2ccccc2)cc1F` [Compound 344], the results for the IC50 in experiment [1] and in experiment [2] were 13 nM and greater than 100000 nM, respectively.

As for `CC(C)c1ccc([C@@H](NC(=O)[C@@H]2C[C@@H](F)CN2C(=O)Cc2cncnc2)c2ccccc2)cc1F` [Compound 345, (2S,4R)-4-fluoro-N-[(S)-[3-fluoro-4-(propan-2-yl)phenyl](phenyl)methyl]-1-[2-(pyrimidin-5-yl)acetyl]pyrrolidine-2-carboxamide], the IC50 in experiment [1] was 32 nM; in experiment [2] it was greater than 100000 nM.

Regarding `CC(C)c1ccc([C@@H](NC(=O)[C@@H]2C[C@@H](F)CN2C(=O)Cc2ccncn2)c2ccccc2)cc1F` [Compound 346, (2S,4R)-4-fluoro-N-[(S)-[3-fluoro-4-(propan-2-yl)phenyl](phenyl)methyl]-1-[2-(pyrimidin-4-yl)acetyl]pyrrolidine-2-carboxamide], the IC50 is 24 nM in experiment [1] and greater than 100000 nM in experiment [2].

In the case of `CC(C)c1ccc([C@@H](NC(=O)[C@@H]2C[C@@H](F)CN2C(=O)Cc2ccn(C)n2)c2ccccc2)cc1F` [Compound 350, (2S,4R)-4-fluoro-N-[(S)-[3-fluoro-4-(propan-2-yl)phenyl](phenyl)methyl]-[2-(1-methyl-1H-pyrazol-3-yl)acetyl]pyrrolidine-2-carboxamide], the IC50 in experiment [1] is 20 nM; in experiment [2], greater than 100000 nM.

For `CC(C)c1ccc([C@@H](NC(=O)[C@@H]2C[C@@H](F)CN2C(=O)CNC(=O)N2CCN(C(=O)OC(C)(C)C)CC2)c2ccccc2)cc1F` [Compound 366, tert-butyl 4-({2-[(2S,4R)-4-fluoro-2-{[(S)-[3-fluoro-4-(propan-2-yl)phenyl](phenyl)methyl]carbamoyl}pyrrolidin-1-yl]-2-oxoethyl}carbamoyl) piperazine-1-carboxylate], the IC50 in experiment [1] is 20 nM; in experiment [2], greater than 100000 nM.

With `CC(C)c1ccc([C@@H](NC(=O)[C@@H]2C[C@@H](F)CN2C(=O)Cn2ncc(N3CCNCC3)n2)c2ccccc2)cc1F` [Compound 376, (2S,4R)-4-fluoro-N-[(S)-[3-fluoro-4-(propan-2-yl)phenyl](phenyl)methyl]-1-{2-[4-(piperazin-1-yl)-2H-1,2,3-triazol-2-yl]acetyl}pyrrolidine-2-carboxamide], the IC50 was 8 nM in experiment [1] and greater than 100000 nM in experiment [2].

Take `Cc1cn(CC(=O)N2C[C@H](F)C[C@H]2C(=O)N[C@@H](c2ccccc2)c2ccc(C(C)C)c(F)n2)c(=O)n(C)c1=O` [Compound 386, (2S,4R)-1-[2-(3,5-dimethyl-2,4-dioxo-1,2,3,4-tetrahydropyrimidin-1-yl)acetyl]-4-fluoro-N-[(S)-[6-fluoro-5-(propan-2-yl)pyridin-2-yl](phenyl)methyl] pyrrolidine-2-carboxamide]: the IC50 in experiment [1] was 5 nM; in experiment [2], greater than 100000 nM.

For the compound `Cc1cn(CC(=O)N2C[C@H](F)C[C@H]2C(=O)N[C@@H](c2ccccc2)c2ccc(C(C)C)c(F)n2)c(=O)[nH]c1=O` [Compound 388, (2S,4R)-4-fluoro-N-[(S)-[6-fluoro-5-(propan-2-yl)pyridin-2-yl](phenyl)methyl]-1-[2-(5-methyl-2,4-dioxo-1,2,3,4-tetrahydropyrimidin-1-yl)acetyl]pyrrolidine-2-carboxamide], the IC50 is 5 nM in experiment [1] and greater than 100000 nM in experiment [2].

`CC(=O)N1C[C@H](F)C[C@H]1C(=O)N[C@@H](c1ccccc1)c1ccc(C2CC2)c(F)c1` [Compound 418, (2S,4R)-1-acetyl-N-[(S)-(4-cyclopropyl-3-fluorophenyl)(phenyl)methyl]-4-fluoropyrrolidine-2-carboxamide]: the IC50 in experiment [1] was 697 nM; in experiment [2], greater than 100000 nM.

As to `CC(=O)NCC(=O)N1CCC[C@H]1C(=O)N[C@@H](c1ccccc1)c1ccc(C2CC2)c(F)c1` [Compound 421, (2S)-N-[(S)-(4-cyclopropyl-3-fluorophenyl)(phenyl)methyl]-1-(2-acetamidoacetyl) pyrrolidine-2-carboxamide], the IC50 is 294 nM in experiment [1] and greater than 100000 nM in experiment [2].

For `O=C(N[C@@H](c1ccccc1)c1ccc(C2CC2)c(F)c1)[C@@H]1C[C@@H](F)CN1C(=O)CCc1ncco1` [Compound 422, (2S,4R)-N-[(S)-(4-cyclopropyl-3-fluorophenyl)(phenyl)methyl]-4-fluoro-1-[3-(1,3-oxazol-2-yl)propanoyl]pyrrolidine-2-carboxamide], the IC50 in experiment [1] is 166 nM; in experiment [2], greater than 100000 nM.

Consider `O=C(N[C@@H](c1ccccc1)c1ccc(C2CC2)c(F)c1)[C@@H]1C[C@@H](F)CN1C(=O)CN1CCOC1=O` [Compound 424, (2S,4R)-N-[(S)-(4-cyclopropyl-3-fluorophenyl)(phenyl)methyl]-4-fluoro-1-[2-(2-oxo-1,3-oxazolidin-3-yl)acetyl] pyrrolidine-2-carboxamide], for which the IC50 is 287 nM in experiment [1] and greater than 100000 nM in experiment [2].

On to `O=C(N[C@@H](c1ccccc1)c1ccc(C2CC2)c(F)c1)[C@@H]1C[C@@H](F)CN1C(=O)Cc1nnco1` [Compound 426, (2S,4R)-N-[(S)-(4-cyclopropyl-3-fluorophenyl)(phenyl)methyl]-4-fluoro-1-[2-(1,3,4-oxadiazol-2-yl)acetyl]pyrrolidine-2-carboxamide], for which the IC50 in experiment [1] is 363 nM; in experiment [2] it was greater than 100000 nM.

On to `O=C(N[C@@H](c1ccccc1)c1ccc(C2CC2)c(F)c1)[C@@H]1C[C@@H](F)CN1C(=O)Cc1nnc(C(F)(F)F)o1` [Compound 428, (2S,4R)-N-[(S)-(4-cyclopropyl-3-fluorophenyl)(phenyl)methyl]-4-fluoro-1-{2-[5-(trifluoromethyl)-1,3,4-oxadiazol-2-yl]acetyl}pyrrolidine-2-carboxamide], for which the IC50 in experiment [1] is 374 nM; in experiment [2] it was greater than 100000 nM.

`O=C(N[C@@H](c1ccccc1)c1ccc(C2CC2)c(F)c1)[C@@H]1C[C@@H](F)CN1C(=O)Cc1nnn[nH]1` [Compound 430, (2S,4R)-N-[(S)-(4-cyclopropyl-3-fluorophenyl)(phenyl)methyl]-4-fluoro-1-[2-(1H-1,2,3,4-tetrazol-5-yl)acetyl]pyrrolidine-2-carboxamide]: the IC50 in experiment [1] is 191 nM; in experiment [2] it was greater than 100000 nM.

`Cc1nnnn1CC(=O)N1C[C@H](F)C[C@H]1C(=O)N[C@@H](c1ccccc1)c1ccc(C2CC2)c(F)c1` [Compound 432, (2S,4R)-N-[(S)-(4-cyclopropyl-3-fluorophenyl)(phenyl)methyl]-4-fluoro-1-[2-(5-methyl-1H-1,2,3,4-tetrazol-1-yl)acetyl]pyrrolidine-2-carboxamide]: the IC50 was 185 nM in experiment [1] and greater than 100000 nM in experiment [2].

Consider `Cc1nnc(CC(=O)N2C[C@H](F)C[C@H]2C(=O)N[C@@H](c2ccccc2)c2ccc(C3CC3)c(F)c2)[nH]1` [Compound 434, (2S,4R)-N-[(S)-(4-cyclopropyl-3-fluorophenyl)(phenyl)methyl]-4-fluoro-1-[2-(5-methyl-4H-1,2,4-triazol-3-yl)acetyl]pyrrolidine-2-carboxamide], for which the values for the IC50 in experiment [1] and in experiment [2] were 109 nM and greater than 100000 nM, respectively.

Take `O=C(N[C@@H](c1ccccc1)c1ccc(C2CC2)c(F)c1)[C@@H]1C[C@@H](F)CN1C(=O)Cn1cccn1` [Compound 435, (2S,4R)-N-[(S)-(4-cyclopropyl-3-fluorophenyl)(phenyl)methyl]-4-fluoro-1-[2-(1H-pyrazol-1-yl)acetyl]pyrrolidine-2-carboxamide]: the results for the IC50 in experiment [1] and in experiment [2] were 149 nM and greater than 100000 nM, respectively.

For `O=C(N[C@@H](c1ccccc1)c1ccc(C2CC2)c(F)c1)[C@@H]1C[C@@H](F)CN1C(=O)Cc1ccn[nH]1` [Compound 436, (2S,4R)-N-[(S)-(4-cyclopropyl-3-fluorophenyl)(phenyl)methyl]-4-fluoro-1-[2-(1H-pyrazol-5-yl)acetyl]pyrrolidine-2-carboxamide], the results for the IC50 in experiment [1] and in experiment [2] were 173 nM and greater than 100000 nM, respectively.

Take `O=C(N[C@@H](c1ccccc1)c1ccc(C2CC2)c(F)c1)[C@@H]1C[C@@H](F)CN1C(=O)Cc1cn[nH]c1` [Compound 437, (2S,4R)-N-[(S)-(4-cyclopropyl-3-fluorophenyl)(phenyl)methyl]-4-fluoro-1-[2-(1H-pyrazol-4-yl)acetyl]pyrrolidine-2-carboxamide]: the IC50 in experiment [1] is 157 nM; in experiment [2], greater than 100000 nM.

Turning to `CN(C)C(=O)NCC(=O)N1C[C@H](F)C[C@H]1C(=O)N[C@@H](c1ccccc1)c1ccc(C2CC2)c(F)c1` [Compound 441, (2S,4R)-N-[(S)-(4-cyclopropyl-3-fluorophenyl)(phenyl)methyl]-1-{2-[(dimethylcarbamoyl)amino]acetyl}-4-fluoropyrrolidine-2-carboxamide], the IC50 in experiment [1] is 51 nM; in experiment [2], greater than 100000 nM.
